Peptide text beside a SMILES is read from it.
Key:
Test in all cases: Antibacterial activity, ATP assay (BacTiter-Glo)
Format in all cases: cell-based
[1] = test system: Klebsiella pneumoniae JCM 1662; details: ATP assay concentration: peptides 10, TOB 4.0, CPFX 1.0, OX 0.5, MEPM 8.0 μg/ml
Description: (§1) That is, using BacTiter-Glo Microbial Cell Viability Assay kit available from PROMEGA, the antibacterial activity of the peptides was evaluated from the viability of bacteria. […] With respect to the strains, Staphylococcus aureus ATCC29213 (S. aureus ATCC29213) as Gram-positive bacteria, or, alternatively, Pseudomonas aeruginosa (P. aeruginosa ATCC27853) as Gram-negative bacteria, was used. The bacteria were cultured in media for 3 to 4 hours, and thereafter absorbances at A600 were measured. Bacterial suspensions were diluted with Mueller-Hinton broth (MHB) according to McFarland #0.5. Each strain was added so as to attain about 0.5−1×10^5 CFU/mL (final concentration) in terms of Escherichia coli. […] A solution to which the peptides were not added was considered as a negative control, and a solution to which tobramycin (TOB) was added was considered as a positive control. […] Relative values were calculated by comparison with the negative control, and these values were regarded as the viability. […] ATP (%) of the antibacterial activity was measured in the same manner as mentioned above, and the “minimum inhibitory concentration (MIC)” was measured as follows. MIC is the lowest concentration of an agent that may inhibit the growth of a bacterium. MIC is used as a parameter for the efficacy of an antibacterial agent, for the strength of bacterial sensitivity, or the like. The bacteria can grow (proliferate) when the concentration is not higher than MIC, and cannot grow when the concentration is higher than MIC. Its measurement is carried out according to a method defined as a standard method by Japanese Society of Chemotherapy or CLINICAL AND LABORATORY […] (CLSI), but, in this Example, its measurement was carried out by a broth microdilution method in accordance with “M100-S17/M7-A7” (Performance Standards for Antimicrobial Susceptibility Testing; Seventeenth Informational Supplement, Vol. 27 No. 1) published by CLSI on January, 2007. That is, sensitivity test of agents was carried out using a microtiter plate or test tubes. With respect to each strain, Escherichia coli: ATCC 25922 (Escherichia coli ATCC 25922), Pseudomonas aeruginosa: ATCC 27853 (Pseudomonas aeruginosa ATCC 27853), Staphylococcus aureus: ATCC29213 (Staphylococcus aureus ATCC29213), Klebsiella pneumoniae: JCM 1662 (Klebsiella pneumoniae JCM 1662), enterobacteria (1): JCM 1232 (Enterobacter cloacae JCM 1232), enterobacteria (2): JCM 1235 (Enterobacter aerogenes JCM 1235), and Staphylococcus epidermidis: JCM 2414 (Staphylococcus epidermidis JCM 2414), were used. […] As the concentrations of the agents in ATP assay, the concentrations as described in the Tables were used.

[2] = test system: Staphylococcus epidermidis JCM 2414; details: ATP assay concentration: peptides 10, TOB 1.0, CPFX 0.5, OX 0.5, MEPM 0.125 μg/ml
Description: as §1

[3] = test system: Enterobacteria (2): Enterobacter aerogenes JCM 1235; details: ATP assay concentration: peptides 10, TOB 4.0, CPFX 1.0, OX 4.0, MEPM 8.0 μg/ml
Description: as §1

[4] = test system: Escherichia coli ATCC 25922; details: ATP assay concentration: peptides 10, TOB 1.0, CPFX 0.015, OX 0.5, MEPM 0.1 μg/ml
Description: as §1

[5] = test system: Enterobacteria (1): Enterobacter cloacae JCM 1232; details: ATP assay concentration: peptides 10, TOB 4.0, CPFX 1.0, OX 4.0, MEPM 8.0 μg/ml
Description: That is, using BacTiter-Glo Microbial Cell Viability Assay kit available from PROMEGA, the antibacterial activity of the peptides was evaluated from the viability of bacteria. […] With respect to the strains, Staphylococcus aureus ATCC29213 (S. aureus ATCC29213) as Gram-positive bacteria, or, alternatively, Pseudomonas aeruginosa (P. aeruginosa ATCC27853) as Gram-negative bacteria, was used. The bacteria were cultured in media for 3 to 4 hours, and thereafter absorbances at A600 were measured. Bacterial suspensions were diluted with Mueller-Hinton broth (MHB) according to McFarland #0.5. Each strain was added so as to attain about 0.5−1×10^5 CFU/mL (final concentration) in terms of Escherichia coli. […] A solution to which the peptides were not added was considered as a negative control, and a solution to which tobramycin (TOB) was added was considered as a positive control. […] Relative values were calculated by comparison with the negative control, and these values were regarded as the viability. […] ATP (%) of the antibacterial activity was measured in the same manner as mentioned above, and the “minimum inhibitory concentration (MIC)” was measured as follows. MIC is the lowest concentration of an agent that may inhibit the growth of a bacterium. MIC is used as a parameter for the efficacy of an antibacterial agent, for the strength of bacterial sensitivity, or the like. The bacteria can grow (proliferate) when the concentration is not higher than MIC, and cannot grow when the concentration is higher than MIC. […] (CLSI), but, in this Example, its measurement was carried out by a broth microdilution method in accordance with “M100-S17/M7-A7” (Performance Standards for Antimicrobial Susceptibility Testing; Seventeenth Informational Supplement, Vol. 27 No. 1) published by CLSI on January, 2007. That is, sensitivity test of agents was carried out using a microtiter plate or test tubes. With respect to each strain, Escherichia coli: ATCC 25922 (Escherichia coli ATCC 25922), Pseudomonas aeruginosa: ATCC 27853 (Pseudomonas aeruginosa ATCC 27853), Staphylococcus aureus: ATCC29213 (Staphylococcus aureus ATCC29213), Klebsiella pneumoniae: JCM 1662 (Klebsiella pneumoniae JCM 1662), enterobacteria (1): JCM 1232 (Enterobacter cloacae JCM 1232), enterobacteria (2): JCM 1235 (Enterobacter aerogenes JCM 1235), and Staphylococcus epidermidis: JCM 2414 (Staphylococcus epidermidis JCM 2414), were used. […] As the concentrations of the agents in ATP assay, the concentrations as described in the Tables were used.

| SMILES | ATP (%) mean, Klebsiella pneumoniae [1] [%] | ATP (%) mean, Staphylococcus epidermidis [2] [%] | ATP (%) mean, Enterobacteria (2) [3] [%] | ATP (%) mean, Escherichia coli [4] [%] | ATP (%) mean, Enterobacteria (1) [5] [%] |
| --- | --- | --- | --- | --- | --- |
| CC[C@H](C)[C@H](NC(=O)[C@H](CC(C)C)NC(=O)[C@H](CCCCN)NC(=O)[C@H](CC(C)C)NC(=O)[C@@H](N)CCSC)C(=O)N[C@@H](Cc1ccccc1)C(=O)N[C@@H](CC(C)C)C(=O)N[C@@H](Cc1c[nH]cn1)C(=O)N[C@@H](CCCNC(=N)N)C(=O)N[C@@H](CC(C)C)C(=O)N[C@@H](CCCCN)C(=O)N[C@@H](CCCNC(=N)N)C(=O)N[C@@H](CCSC)C(=O)N[C@@H](CCCNC(=N)N)C(=O)N[C@@H](CCCCN)C(=O)N[C@@H](CCCNC(=N)N)C(=O)N[C@@H](CC(C)C)C(=O)N[C@@H](CCCCN)C(=O)N[C@@H](CCCNC(=N)N)C(=O)N[C@@H](CCCCN)C(=O)O [SR-1] (H-MLKLIFLHRLKRMRKRLKRK-OH; N-terminus assumed) | 22.1 | 5.2 | 39.4 | 18.4 | 4.9 |
| CSCC[C@H](NC(=O)[C@H](CCCNC(=N)N)NC(=O)[C@@H](N)CCCCN)C(=O)N[C@@H](CCCNC(=N)N)C(=O)N[C@@H](CCCCN)C(=O)N[C@@H](CCCNC(=N)N)C(=O)N[C@@H](CC(C)C)C(=O)N[C@@H](CCCCN)C(=O)N[C@@H](CCCNC(=N)N)C(=O)N[C@@H](CCCCN)C(=O)N[C@@H](CC(C)C)C(=O)N[C@@H](CCCNC(=N)N)C(=O)N[C@@H](CC(C)C)C(=O)N[C@@H](Cc1c[nH]c2ccccc12)C(=O)N[C@@H](Cc1c[nH]cn1)C(=O)N[C@@H](CCCNC(=N)N)C(=O)N[C@@H](CCCCN)C(=O)N[C@@H](CCCNC(=N)N)C(=O)N[C@@H](Cc1ccc(O)cc1)C(=O)N[C@@H](CCCCN)C(=O)O [SR-5] (H-KRMRKRLKRKLRLWHRKRYK-OH; N-terminus assumed) | 30.0 | 3.6 | 41.5 | 27.0 | 3.4 |
| NC[C@H]1O[C@H](O[C@H]2[C@H](O)[C@@H](O[C@H]3O[C@H](CO)[C@@H](O)[C@H](N)[C@H]3O)[C@H](N)C[C@@H]2N)[C@H](N)C[C@@H]1O [TOB, tobramycin, reference compound] | 3.8 | 4.2 | 0.5 | 3.8 | 3.0 |
| Cc1onc(-c2ccccc2)c1C(=O)N[C@@H]1C(=O)N2[C@@H]1SC(C)(C)[C@@H]2C(=O)O [OX, oxacillin, reference compound] | 142.2 | 101.4 | 86.9 | 114.4 | 97.7 |
| CSCC[C@H](NC(=O)[C@H](CCCNC(=N)N)NC(=O)[C@H](CCCCN)NC(=O)[C@H](CC(C)C)NC(=O)[C@H](CCCNC(=N)N)NC(=O)[C@H](Cc1c[nH]cn1)NC(=O)[C@H](CC(C)C)NC(=O)[C@H](Cc1ccccc1)NC(=O)[C@H](CCCNC(=N)N)NC(=O)[C@H](CC(C)C)NC(=O)[C@@H](N)CCC(=O)O)C(=O)N[C@@H](CCCNC(=N)N)C(=O)N[C@@H](CCCCN)C(=O)N[C@@H](CCCNC(=N)N)C(=O)N[C@@H](CC(C)C)C(=O)N[C@@H](CCCCN)C(=O)N[C@@H](CCCNC(=N)N)C(=O)N[C@@H](CCCCN)C(=O)N[C@@H](CC(C)C)C(=O)N[C@@H](CCCNC(=N)N)C(N)=O [SR-3] (H-ELRFLHRLKRMRKRLKRKLR-NH2; N-terminus assumed) | 20.3 | 4.1 | 23.5 | 16.5 | 4.3 |
| C[C@@H](O)[C@H]1C(=O)N2C(C(=O)O)=C(S[C@@H]3CN[C@H](C(=O)N(C)C)C3)[C@H](C)[C@H]12 [MEPM, meropenem, reference compound] | 11.9 | 28.2 | 2.3 | 15.7 | 5.6 |
| CC[C@H](C)[C@H](NC(=O)[C@H](CC(C)C)NC(=O)[C@@H](N)CCCCN)C(=O)N[C@@H](Cc1ccccc1)C(=O)N[C@@H](CC(C)C)C(=O)N[C@@H](Cc1c[nH]cn1)C(=O)N[C@@H](CCCNC(=N)N)C(=O)N[C@@H](CC(C)C)C(=O)N[C@@H](CCCCN)C(=O)N[C@@H](CCCNC(=N)N)C(=O)N[C@@H](CCSC)C(=O)N[C@@H](CCCNC(=N)N)C(=O)N[C@@H](CCCCN)C(=O)N[C@@H](CCCNC(=N)N)C(=O)N[C@@H](CC(C)C)C(=O)N[C@@H](CCCCN)C(=O)N[C@@H](CCCNC(=N)N)C(=O)N[C@@H](CCCCN)C(=O)N[C@@H](CC(C)C)C(=O)N[C@@H](CCCNC(=N)N)C(N)=O [SR-4] (H-KLIFLHRLKRMRKRLKRKLR-NH2; N-terminus assumed) | 15.0 | 5.5 | 20.9 | 13.0 | 4.9 |
| CC(C)C[C@H](NC(=O)[C@H](CCCCN)NC(=O)[C@H](CCCNC(=N)N)NC(=O)[C@H](CCCCN)NC(=O)[C@H](CC(C)C)NC(=O)[C@H](CCCNC(=N)N)NC(=O)[C@H](CCCCN)NC(=O)[C@H](CCCNC(=N)N)NC(=O)[C@H](CC(C)C)NC(=O)[C@H](CCCNC(=N)N)NC(=O)[C@H](CCCNC(=N)N)NC(=O)[C@H](CCCCN)NC(=O)[C@H](CC(C)C)NC(=O)[C@H](CCCNC(=N)N)NC(=O)[C@H](Cc1c[nH]cn1)NC(=O)[C@H](CC(C)C)NC(=O)[C@H](Cc1ccccc1)NC(=O)[C@H](CCCNC(=N)N)NC(=O)[C@H](CC(C)C)NC(=O)[C@@H](N)CCC(=O)O)C(=O)N[C@@H](CCCNC(=N)N)C(N)=O [SR-2] (H-ELRFLHRLKRRLRKRLKRKLR-NH2; N-terminus assumed) | 9.1 | 2.6 | 15.3 | 6.2 | 3.0 |

Reference: US9376470B2, “Polypeptide having angiogenesis-inducing activity and antibacterial activity, and use thereof for medical purposes” (FunPep Inc., priority 2008, dated 2016)
